Measurements published in patent publication US8425447B2, “Selective cytopheresis devices and related methods thereof” (The Regents of the University of Michigan, priority 2007, dated 2013).

System: Leukocytes isolated from normal healthy individuals
Test: In vitro release from leukocytes adhered to polysulfone membranes, with or without LPS
Type: cell-based, human
Method: Leukocytes were isolated from normal healthy individuals using established methods. The leukocytes (10^6 cells per well) were placed into 12-well tissue culture plates containing 14×14 mm squares of polysulfone membranes (Fresenius, Walnut Creek, Calif.) and allowed to adhere for 60 minutes at 37° C. in RPMI media. The media was removed, cells washed with PBS, and the removed supernatants were analyzed for cell release. RPMI media with citrate (Cai=0.25 mmol/L) or without citrate (Cai=0.89 mmol/L) was used to achieve the Cai levels described in Table 5 below. Each calcium condition also had media with or without lipopolysaccharide (LPS, 1 μg/mL) to activate the leukocytes.
The cells were exposed to these conditions for […] and removed from the media to assess release of lactoferrin (LF) and myeloperoxidase (MPO), proteins in exocytotic vesicles from neutrophils, and cytokines, IL-6 and IL-8, released from leukocytes. These compounds were assayed with commercially available Elisa kits (R & D Systems, Cell Sciences, and EMD BioSciences).

[1] = with LPS (1 μg/mL), citrate media Cai 0.25 mmol/L, 60 seconds
[2] = without LPS, citrate media Cai 0.25 mmol/L, 60 seconds

`O=C(O)CC(O)(CC(=O)O)C(=O)O` [Citrate] was tested, and the “increases in LF, MPO, IL-6, or IL-8 on LPS stimulation” value (citrate-containing media with low Cai, in contrast to normal Cai media) was “no increases”, the “IL-6 release, Stimulated” value [1] was 2.9 pg/mL/10^6 cells and the “IL-8 release, Stimulated” value [1] was 19.4 ng/mL/10^6 cells. The “Lactoferrin release, Stimulated” value [1] was 187 ng/mL/10^6 cells, the “Myeloperoxidase release, Stimulated” value [1] was 270 ng/mL/10^6 cells and the “IL-6 release, Baseline” value [2] was 3.3 pg/mL/10^6 cells. For the same compound, the “IL-8 release, Baseline” value [2] was 25.8 ng/mL/10^6 cells, the “Lactoferrin release, Baseline” value [2] was 221 ng/mL/10^6 cells and the “Myeloperoxidase release, Baseline” value [2] was 268 ng/mL/10^6 cells.
